Source: US20170226518A1, “COMPOSITIONS AND METHODS FOR TREATING CANCER” (Autotelic LLC, priority 2016, published 2017)
In the oligonucleotide strings, read from the 5' end, every base follows the letter of its sugar. An asterisk marks phosphorothioate; unmarked linkages are phosphodiester. Other units and linkages are bracketed, terminal groups are in braces. A string of capitals states the bases alone. d = 2'-deoxy (DNA)

How the values were obtained:
[1] = Preclinical toxicology in Cynomolgus monkeys (LOAEL); assay type: in vivo
Experimental: (§1) The clinical starting dose for the 7-days-on and 7-days-off schedule was based on the Lowest-Observed-Adverse-Effect-Level (LOAEL) devoid of severe toxicity in Cynomolgus monkeys as the most relevant species. This LOAEL of 4 mg/kg body weight (b.w.)/day is equivalent to approximately 1.3 mg/kg b.w./day or 48 mg/m^2/day on a body surface area basis in human adults. These numbers were rounded down and the safe starting dose was defined at 40 mg/m^2/day, equivalent to approximately 1 mg/kg b.w./day in humans. An alternative approach would have been based on the lowest lethal dose (LLD) of 300 mg/kg b.w. obtained in the acute single dose toxicity study in mice (in rats it was determined at 1000 mg/kg), at which 1 of 10 mice died (LLD10). According to the standard method, 10% of this dose (30 mg/kg) on a body surface area basis would then be defined as the clinical starting dose resulting in 90 mg/m^2/day. In the end, the lower of the two alternatives was chosen as starting dose.

[2] = Acute single dose toxicity in rats; assay type: in vivo
Experimental: as §1

[3] = tested on: TGFβ2; experiment: TGFβ2 secretion/expression in WiDr colon cancer cells; assay type: cell-based; settings: 10 μM AP12009
Source text: (§2) The aim of the study was to determine the effect of AP12009 (trabedersen) treatment in combination with 5-Fluorouracil (5-FU) on TGFβ2 secretion and on cellular proliferation of HUP-T3 pancreatic cancer cells and WiDr colon cancer cells in vitro.

[4] = tested on: WiDr colon cancer cells; experiment: Cellular proliferation of WiDr colon cancer cells in vitro; assay type: cell-based; settings: 10 μM AP12009
Source text: as §2

[5] = tested on: A-172 glioma cells; experiment: Migration of A-172 glioma cells; assay type: cell-based; settings: AP12009 10 μM as monotherapy, compared with untreated control
Experimental: (§3) A-172 glioma cells were treated with a combination of AP12009 (trabedersen) 0 to 10 μM) and different concentrations of TMZ (temozolomide) for 7 days (treatment schedule 2*2/1*3 d).

[6] = tested on: TGFβ2; experiment: TGFβ2 secretion in A-172 glioma cells; assay type: cell-based; settings: 7 days, treatment schedule 2*2/1*3 d
Experimental: as §3
(§4) In summary there is no clear beneficial effect in combining AP12009 with TMZ in A-172 cells.

[7] = tested on: A-172 glioma cells; experiment: Proliferation of A-172 glioma cells; assay type: cell-based; settings: 7 days, treatment schedule 2*2/1*3 d
Experimental: as §3, §4

[8] = tested on: pancreatic cancer; experiment: Phase I/II study P-001: PFS and OS in pancreatic cancer patients; assay type: in vivo, human; settings: for OS: pancreatic cancer; for OS (overall survival) / PFS (progression free survival): second line pancreatic cancer patients, 4 days on and 10 days off
Experimental: (§5) At screening, up to 10 “measurable lesions” (i.e. lesions that could be accurately measured in at least 1 dimension with a longest diameter of 2 cm) representative of all involved organs were identified as “target lesions” for tumor response assessment and were measured and documented. All other lesions were defined and recorded as “non-target lesions”. Tumor response was determined by the local investigator every 8 weeks after start of the first trabedersen cycle during follow-up visits, irrespective of whether the patient was still on treatment or off treatment. The tumor assessment was based on Response Evaluation Criteria in Solid Tumors (RECIST 1.0) criteria. The categories of overall tumor response are as follows: (1) Complete response (CR): disappearance of all target and non-target lesions and normalization of tumor marker level; (2) Partial response (PR): at least 30% decrease in the sum of the longest diameter (LD) of target lesions (baseline sum LD as reference) and/or persistence of one or more non-target lesions and/or maintenance of tumor marker level above normal limits; (3) Stable disease (SD): less than 30% decrease or less than 20% increase in sum LD target lesions (smallest sum LD since treatment start as reference) and/or persistence of one or more non-target lesions and/or maintenance of tumor marker level above normal limits; (4) Progressive disease (PD) At least 20% increase in sum LD target lesions (smallest sum LD since treatment start as reference) and/or unequivocal progression of existing nontarget lesions and/or appearance of one or more new lesions; and (5) Unknown.
(§6) Progression-free survival (PFS) was defined as the time from Day 1 until tumor progression or death from any cause. The date of progression was either the date of the image showing progression or the date of treatment termination in case one of the reasons for treatment termination was tumor progression (referring to clinical progression as assessed by the Investigator), whichever occurred first.
Overall survival (OS) was defined as the time from Day 1 until death from any cause. All patients were followed for survival during the follow-up assessments every 8 weeks. The survival status was documented at the Final Visit (Day 29) and during the 8-weekly post-treatment follow-up assessments, and was continued to be collected after study closure until database lock or until the patient was lost to follow-up.
There were […] line patients and 11 third line and beyond on the 4 days on and 10 days off regimen. The PFS/OS (progression free survival/overall survival ratio) of these second line patients in months were: 1.87/5.60 (N=6), 1.87/9.93 (N=11) and 2.72/11.80 (N=5) at increasing mean dose of 140 mg/m^2/day, 167 mg/m^2/day, and 196 mg/m^2/day, respectively. The OS of 9.93 and 11.80 are higher than the highest reported in the 65 trials reported in the literature during 1997-2015 (range=2.50-9.20/median=5.50). The corresponding PFS values were in line with reported literature (range=0.00-7.65/median=2.43). […] Trabedersen itself was not having an impact on the tumor (FIG. 1).

[9] = tested on: melanoma; experiment: Phase I/II study P-001: PFS and OS in melanoma patients; assay type: in vivo, human
Experimental: as §5, §6
Overall survival (OS) was defined as the time from Day 1 until death from any cause. All patients were followed for survival during the follow-up assessments every 8 weeks. […]
The primary objective was to determine the maximum tolerated dose (MTD) and the dose-limiting toxicity (DLTs) of two cycles of trabedersen administered intravenously (i.v.) for 7 days (7 days on and 7 days off) or for 4 days every other week (4 days on and 10 days off). The secondary objectives included assessment of the potential antitumor activity of trabedersen administered i.v. at weekly intervals and for four days every other week, as assessed by survival. […]

[10] = mean dose 167 mg/m^2/day (N=11)

## trabedersen: TGFβ2 specific phosphorothioate antisense oligodeoxynucleotide with the sequence 5′-CGGCATGTCTATTTTGTA-3′ (SEQ ID No: 1) (antisense dC*dG*dG*dC*dA*dT*dG*dT*dC*dT*dA*dT*dT*dT*dT*dG*dT*dA)
[1]
  Lowest-Observed-Adverse-Effect-Level (LOAEL) devoid of severe toxicity: 4 mg/kg body weight (b.w.)/day
[2]
  lowest lethal dose (LLD): 1000 mg/kg
[3]
  TGFβ2 expression (% of untreated control): 54%
[4]
  cell proliferation (% of untreated control): 76%
[5]
  effect on migration of A-172 cells: did not affect migration
[6]
  effect on TGFβ2 secretion: strongly reduced TGFβ2
[7]
  effect on cell proliferation: slightly reduced cell proliferation
[8]; pancreatic cancer patients, trabedersen as second line treatment (FIG. 1)
  overall survival (OS) rate versus dose: dose dependent increase
[8]; 4/10 cohort treated with subsequent chemotherapies
  OS: 14.7 mos
[8]; 4/10 cohort without subsequent chemotherapies
  OS: 2.93 mos
[8]; chemotherapy on 2nd line followed with trabedersen 4/10 regimen as third line (N=9)
  OS: 2.80 mos
[8]; trabedersen first on 2nd line followed with subsequent therapies (N=11)
  OS: 9.93 mos
[8]; mean dose 140 mg/m^2/day (N=6)
  OS (overall survival): 5.60 months
  PFS (progression free survival): 1.87 months
[8]; [10]
  OS (overall survival): 9.93 months
  PFS (progression free survival): 1.87 months
[8]; mean dose 196 mg/m^2/day (N=5)
  OS (overall survival): 11.80 months
  PFS (progression free survival): 2.72 months
[9]; 15 patients
  Median progression free survival (PFS): 1.77 mos
[9]; all doses, 19 patients
  median OS: 11.4 mos
[9]; trabedersen followed by subsequent chemotherapy (N=9)
  OS: 13.70 mos
[9]; without subsequent chemotherapy (N=7)
  OS: 5.5 mos
